Results reported in PMC9090415, “Discovery of small molecule inhibitors of Plasmodium falciparum apicoplast DNA polymerase” (Journal of Enzyme Inhibition and Medicinal Chemistry, 2022).

Molecular target: P. falciparum apicoplast DNA polymerase (Pf-apPOL) (Plasmodium falciparum, UniProt Q8ILY1)
Assay: Fluorescence-based high-throughput DNA polymerase assay (molecular beacon), primary screen and dose-response;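 on % inhibition ApPOL 90': test concentration in µM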;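 on % inhibition apPOL 180': test concentration in µM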
Type: biochemical
In short: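 Single-point screening used 10 µM compound with 20 nM polymerase, 20 nM hairpin substrate and 6 µM dNTPs for 90 min at 25 °C. Confirmatory titrations (2.5–80 µM) followed fluorescence at three times, and IC50 was derived from a fit including a cooperativity term n.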

[1] = supplemental file 2, sheet IC50 nontoxic compounds; Pf-apPOL

P. falciparum apicoplast DNA polymerase (Pf-apPOL), sequence (Q8ILY1 entry or part of it): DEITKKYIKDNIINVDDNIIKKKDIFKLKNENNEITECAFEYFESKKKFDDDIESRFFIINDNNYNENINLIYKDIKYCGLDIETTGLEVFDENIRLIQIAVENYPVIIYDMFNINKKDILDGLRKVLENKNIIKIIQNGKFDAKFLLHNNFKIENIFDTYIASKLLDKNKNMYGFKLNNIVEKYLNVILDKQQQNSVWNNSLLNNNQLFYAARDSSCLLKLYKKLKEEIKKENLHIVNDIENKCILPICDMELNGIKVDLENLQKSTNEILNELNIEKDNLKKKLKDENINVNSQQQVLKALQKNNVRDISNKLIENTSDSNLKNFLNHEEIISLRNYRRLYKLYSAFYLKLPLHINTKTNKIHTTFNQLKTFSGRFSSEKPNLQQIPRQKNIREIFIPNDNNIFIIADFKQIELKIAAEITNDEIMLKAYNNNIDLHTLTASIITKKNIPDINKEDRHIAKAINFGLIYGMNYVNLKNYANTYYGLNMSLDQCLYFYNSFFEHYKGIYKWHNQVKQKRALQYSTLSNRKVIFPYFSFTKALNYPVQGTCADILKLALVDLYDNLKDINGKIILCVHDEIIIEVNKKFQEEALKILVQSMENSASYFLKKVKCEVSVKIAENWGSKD

With `Cc1cc(C)nc(Nc2nc(CC(=O)Nc3nc(-c4ccco4)cs3)cs2)n1` [Molecule 92, O=C(Nc1scc(n1)c1ccco1)Cc1csc(n1)Nc1nc(C)cc(n1)C] the “% inhibition Apo pol 10'” value (DRC-1; concentration 2.5; 10') was -6.381%, the “% inhibition Apol 90'” value (DRC-1; concentration 2.5; 90') was -8.504% and the “% inhibition apPOL 180'” value (DRC-1; concentration 2.5; 180') was -14.5806%. The “% inhibition Apo pol 10'” value (DRC-1; concentration 5; 10') was 13.7887%, the “% inhibition Apol 90'” value (DRC-1; concentration 5; 90') was 3.55% and the “% inhibition apPOL 180'” value (DRC-1; concentration 5; 180') was -5.24%. For the same molecule, the “% inhibition Apo pol 10'” value (DRC-1; concentration 10; 10') was 59.5511%, the “% inhibition Apol 90'” value (DRC-1; concentration 10; 90') was 43.4607% and the “% inhibition apPOL 180'” value (DRC-1; concentration 10; 180') was 29.1586%. For the same molecule, the “% inhibition Apo pol 10'” value (DRC-1; concentration 20; 10') was 80.2022%, the “% inhibition Apol 90'” value (DRC-1; concentration 20; 90') was 69.8736% and the “% inhibition apPOL 180'” value (DRC-1; concentration 20; 180') was 60.6937%. For the same molecule, the “% inhibition Apo pol 10'” value (DRC-1; concentration 40; 10') was 86.2847%, the “% inhibition Apol 90'” value (DRC-1; concentration 40; 90') was 85.2413% and the “% inhibition apPOL 180'” value (DRC-1; concentration 40; 180') was 83.5937%. The “% inhibition Apo pol 10'” value (DRC-1; concentration 80 (unit not given); 10') was 83.354%, the “% inhibition Apol 90'” value (DRC-1; concentration 80; 90') was 86.9682% and the “% inhibition apPOL 180'” value (DRC-1; concentration 80; 180') was 88.1815%. For the same molecule, the “% inhibition Apo pol 5'” value (DRC-2; 5'; concentration 5) was 6%, the “% inhibition Apo pol 5'” value (DRC-2; 5'; concentration 40) was 41% and the “% inhibition Apol 40'” value (DRC-2; 40'; concentration 10) was 41%. The “% inhibition Apol 40'” value (DRC-2; 40'; concentration 20) was 59%, the “% inhibition Apol 40'” value (DRC-2; 40'; concentration 80) was 59% and the “% inhibition ApPOL 90'” value (DRC-2; 90'; concentration 5) was 6%. The “% inhibition Apo pol 5'” value (DRC-2; concentration 2.5; 5') was 7%, the “% inhibition Apol 40'” value (DRC-2; concentration 2.5; 40') was 9% and the “% inhibition ApPOL 90'” value (DRC-2; concentration 2.5; 90') was 7.61%. For the same molecule, the “% inhibition apPOL 180'” value (DRC-2; concentration 2.5; 180') was 3.63%, the “% inhibition Apo pol 5'” value (DRC-2; concentration 5; 5') was 6% and the “% inhibition Apol 40'” value (DRC-2; concentration 5; 40') was 5.45%. For the same molecule, the “% inhibition ApPOL 90'” value (DRC-2; concentration 5; 90') was 6%, the “% inhibition apPOL 180'” value (DRC-2; concentration 5; 180') was 0.203% and the “% inhibition Apo pol 5'” value (DRC-2; concentration 10; 5') was 37%. The “% inhibition Apol 40'” value (DRC-2; concentration 10; 40') was 41%, the “% inhibition ApPOL 90'” value (DRC-2; concentration 10; 90') was 39% and the “% inhibition apPOL 180'” value (DRC-2; concentration 10; 180') was 30%. For the same molecule, the “% inhibition Apo pol 5'” value (DRC-2; concentration 20; 5') was 43%, the “% inhibition Apol 40'” value (DRC-2; concentration 20; 40') was 59% and the “% inhibition ApPOL 90'” value (DRC-2; concentration 20; 90') was 60%. The “% inhibition apPOL 180'” value (DRC-2; concentration 20; 180') was 57%, the “% inhibition Apo pol 5'” value (DRC-2; concentration 40; 5') was 41% and the “% inhibition Apol 40'” value (DRC-2; concentration 40; 40') was 65%. For the same molecule, the “% inhibition ApPOL 90'” value (DRC-2; concentration 40; 90') was 70%, the “% inhibition apPOL 180'” value (DRC-2; concentration 40; 180') was 74% and the “% inhibition Apo pol 5'” value (DRC-2; concentration 80; 5') was 29%. For the same molecule, the “% inhibition Apol 40'” value (DRC-2; concentration 80; 40') was 59%, the “% inhibition ApPOL 90'” value (DRC-2; concentration 80; 90') was 66% and the “% inhibition apPOL 180'” value (DRC-2; concentration 80; 180') was 73%. The “DNA Pol” value (primary screen value of the 186 hits; unit not given; 90 min, 10 µM) was 70 and the “DNA Pol” value (primary screen value; head prints only 'DNA Pol'; 90 min, 10 µM) was 70.
For `N#Cc1c(C2CCCCC2)nc(Sc2ccc(C(F)(F)F)cc2[N+](=O)[O-])[nH]c1=O` [Molecule 20], the IC50 [1] was 8.81 µM.
`COC(=O)c1sc(-c2ccc(C(C)(C)C)cc2)cc1NC(=O)CCC(=O)O` [Molecule 87] was tested, and the IC50 [1] was 8.86 µM.
